Test results: US20250345295A1, “LMK235 COMPOSITIONS AND METHODS” (UNM Rainforest Innovations, priority 2024, published 2025)
Entries after “also recorded” stand apart in the source; their conditions may differ.

How the values were obtained:
[1] = system: mice with trigeminal nerve injury; assay: Light/dark place preference test (anxiety-like behavior); format: in vivo, mouse; settings: nerve-injured mice, weeks 6-9 post surgery
Procedure: Anxiety-related behaviors were assessed in a manner typical in the literature—i.e., once at the end in week 8 since anxiety develops only in mice 6-8 weeks after persisting nerve injury (e.g., Lyons et al., Neuroscience 2015 Jun. 4; 295:126-138). The effects of HDACi on chronic craniofacial pain-related behaviors were assessed using light/dark place preference test and zero maze.
Animals were exposed to acoustic startle (5 minutes) immediately prior to placement in the light/dark place preference box as in a previous study (Lyons et al., Neuroscience 2015 Jun. 4; 295:126-138). Mils acoustic startle stress just prior to the test induces panic anxiety-like behavior with increased time and entries in the open arms compared to controls (de Paula HMG, Hoshino K, Behav Brain Res 2003 Dec. 17; 147(1-2):157-162; de Paula HMG, Hoshino K, Physiol Behav 2004 January; 80(4):459-464; Kontinen et al., Pain 1999 March;80(1-2):341-346). In the light/dark box place preference task (total time 10 minutes) anxiety-like behaviors were recorded as: (i) total time spent in the light area, (ii) number of entries into the light area, (iii) number of rearing events/exploratory behavior, (iv) latency of the first transition into the light chamber, and (v) latency of first re-entry (transition) back into the dark chamber.

[2] = system: small (<30 μm) TG neurons from naïve mice; assay: Whole-cell patch-clamp electrophysiology, TG neurons from naïve mice; format: cell-based, mouse; settings: 13 μM for one hour vs 0.1% DMSO
Procedure: The excitability of TG neurons is directly linked to the pathophysiology of trigeminal neuropathic pain. In order to determine the effect of LMK235 on TG neurons from FRICT-ION mice, whole-cell patch-clamp electrophysiological recordings were made from small (<30 μm) TG neurons in the presence of LMK235 (13 μM) or vehicle (0.1% DMSO). TG neurons were obtained from FRICT-ION mice at three weeks post injury or naïve mice. The TG neurons were treated for one hour in vitro with either LMK235 or vehicle control prior to recording (FIG. 7).
Neurons with a diameter of <30 μm were identified by infrared differential interference contrast (IR-DIC) imaging with a microscope connected to an Olympus digital camera. Current clamp recordings were performed using a Molecular Devices Multiclamp 700B (Scientifica, UK). Signals were filtered at 5 KHz, acquired at 50 KHz using a Molecular Devices 1550B converter (Scientifica, UK) and recorded using Clampex 11 software (Molecular Devices, Scientifica, UK). Electrodes were pulled with a Zeitz puller (Werner Zeitz, Martinsreid, Germany) from borosilicate thick glass (GC150F, Sutter Instruments). Electrode resistance was 5-8 MΩ. Bridge balance was applied to all recordings. Intracellular solution contained (in mM) 125 K-gluconate, 6 KCl, 10 HEPES, 0.1 EGTA, 2 Mg-ATP, pH 7.3 with KOH, and osmolarity of 290-310 mOsm. Artificial cerebrospinal fluid (aCSF) contained (in mM) 113 NaCl, 3 KCl, 25 NaHCO3, 1 NaH2PO4, 2 CaCl2), 2 MgCl2, and 11-glucose. For whole-cell current clamp recordings, to evaluate the basic input-output action potential frequency response to hyperpolarization and depolarization, DC current was injected from 0 pA to +200 pA in 10-pA increments for a duration of 500 milliseconds at the cell's intrinsic resting membrane potential. Data acquisition was sampled at 20 kHz and filtered at 2.4 kHz. Recordings with a series resistance greater than 20 MΩ were discarded, and series resistance was compensated to 70%. In response to a −100 pA hyperpolarizing pulse with 500 millisecond duration, voltage sag amplitude was measured. Sag ratio was calculated using the following equation as described previously (Fan et al., Front Cell Neurosci 2016 Mar. 24; 10:74):
where Vpeak is the maximum voltage deflection and Vss is the steady state voltage at the end of the hyperpolarizing pulse.
Male mice were euthanized three weeks after inducing the FRICT-ION model. The TG were dissected, minced, and dissociated in an enzymatic combination containing sterile, calcium-free, and magnesium-free HBSS (Cat #14170112, Gibco), papain suspension (32.7 U/mgP, Cat #LS003126; Worthington, Lakewood, NJ), L-Cysteine (Cat #C7352-25g, Sigma), and saturated bicarbonate (Cat #S5761-500g, Sigma) solution. […]

HDAC5 protein = assay: Western blot of TG HDAC5 protein; format: in vivo, mouse; settings: for TG HDAC5 protein levels: LMK235 treatment
Procedure: Mice were euthanized with pentobarbital (FatalPlus, 480 mg/kg) and both ipsilateral and contralateral TG were removed. TG were washed immediately in PBS and stored at −80° C. Protein from TG tissue was extracted following homogenization using a pestle and 500 μL of 1× RIPA buffer (Thermo Fisher Scientific, Inc., Waltham, MA, Cat #89,900). Samples were put on a rocking shaker for two hours and then centrifuged, and the supernatant removed to a new tube. Sample was assayed for total protein (Bradford, Thermo Fisher Scientific, Inc., Waltham, MA). Samples were then prepared for electrophoresis by mixing with 2× sample buffer and boiling for five minutes at 100° C. for denaturation.
Proteins were loaded on a 12% Tris-Glycine polyacrylamide gradient gel (Bio-Rad Laboratories, Inc., Hercules, CA) and transferred to a PVDF membrane (MilliporeSigma, Burlington, MA). Membrane was blocked for an hour with 5% nonfat milk in TBST buffer at room temperature and incubated at 4° C. with anti-HDAC5 antibody overnight (Abcam, Cambridge, UK, #ab55403, #ab2772, #ab170935). The membrane was subsequently washed with TBST and then incubated with anti-rabbit secondary with HRP for one hour at room temperature (Abcam ab6721, diluted 1:1000 in TBST). The washing was repeated and then the blot developed with chemiluminescent substrate (Thermo Fisher Scientific, Inc., Waltham, MA Cat #32,106). The blot was then imaged using a Li-Cor Odyssey FC imaging system. Signal intensity was normalized to actin (Abcam ab8227, 1:2000) or tubulin (Abcam #ab10287), which was used as a loading control. Signal intensity was analyzed using ImageJ for comparisons.

Cc1cc(C)cc(C(=O)NOCCCCCC(=O)NO)c1 [LMK235, N-[[6-(Hydroxyamino)-6-oxohexyl]oxy]-3,5-dimethyl-benzamide]
anxiety-like behaviors, light/dark box test [1]: reduction of anxiety measures; also recorded: inhibited the development of anxiety-like behaviors | electrophysiological properties [2]: not significantly altered | resting membrane potential (RMP) [2]: no significant differences | rheobase [2]: no significant differences | sag ratio [2]: no effect | TG HDAC protein levels vs untreated FRICT-ION mice (HDAC5 protein; LMK235-treated FRICT-ION mice, males and females): significantly lower | TG HDAC5 protein levels (HDAC5 protein; female FRICT-ION mice): to naïve levels | TG HDAC5 protein levels (HDAC5 protein; male FRICT-ION mice): below naïve levels
